From patent publication US5698691A, “Condensed cyclic compounds and their use” (Takeda Chemical Industries, Ltd., priority 1993, dated 1997)

Key:
[1] = target: T1, squalene synthetase (Homo sapiens, UniProt P37268); assay: Squalene synthetase inhibitory activity, human-derived enzyme (HepG2 microsome fraction); assay type: biochemical; settings: 5 uM [1-3H] farnesyl pyrophosphate, 37° C., 45 minutes
T1 construct: endogenous in cells; host or cells: HepG2 (human hepatic carcinoma) cells, microsome fraction
T1 sequence (P37268 1-417): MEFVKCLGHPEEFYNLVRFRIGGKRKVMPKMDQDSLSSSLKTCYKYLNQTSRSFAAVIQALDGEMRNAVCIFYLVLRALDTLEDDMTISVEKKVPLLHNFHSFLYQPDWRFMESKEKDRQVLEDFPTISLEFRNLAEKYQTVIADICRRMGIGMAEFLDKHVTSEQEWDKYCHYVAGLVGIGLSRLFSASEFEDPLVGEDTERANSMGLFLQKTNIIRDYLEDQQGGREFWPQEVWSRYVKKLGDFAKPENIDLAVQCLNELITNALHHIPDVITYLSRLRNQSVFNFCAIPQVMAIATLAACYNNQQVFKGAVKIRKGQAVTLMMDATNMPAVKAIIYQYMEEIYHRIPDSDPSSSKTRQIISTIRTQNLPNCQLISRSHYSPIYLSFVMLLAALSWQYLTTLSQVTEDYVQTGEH
Procedure: (§1) Assay Method of Squalene Synthetase Inhibitory Activity
(§2) The squalene synthetase inhibitory activity was assayed as follows with the enzyme solutions described in the subsequent Experimental Examples 1 and 2.
(§3) More specifically, an enzyme solution (protein content 0.8 ug) prepared in Experimental Example 1 or 2 was added to a solution (total volume 50 μl)) containing 5 uM [1-^3 H] farnesyl pyrophosphate (specific activity 25 uCi/mole), 1 mM NADPH, 5 mM MgCl2, 6 mM glutathione, a 100 mM buffer solution of potassium phosphate (pH 7.4) and a test drug (used as an aqueous solution or a DMSO solution), then the reaction was allowed to proceed at 37° C. for 45 minutes. To the reaction mixture was added 150 μl of a mixture of chloroform and methanol (1:2) to suspend the reaction, followed by adding 50 μl of chloroform and 50 μl of a 3N aqueous solution of sodium hydroxide. 50 μl of the chloroform layer (lower layer) containing the reaction mixture having squalene as the principal component and 3 ml of toluene-based liquid scintillator were mixed, and its radioactivity was determined by means of a liquid scintillation counter.
(§4) The squalene synthetase inhibitory activity was expressed in terms of the concentration inhibiting by 50% the radioactivity taken into the chloroform layer (IC50, molar concentration (M)).
Human hepatic carcinoma cells HepG2 (about 1×10^9 cells) obtained by incubation in a Dulbecco-modified Eagle's medium (37° C. in the presence of 5% CO2) were suspended in 10 ml of an ice-cooled buffer solution [100 mM potassium phosphate buffer (pH 7.4), 30 mM nicotinamide and 2.5 mM MgCl2 ]. The cells were crashed by means of ultrasonication (for 30 seconds, twice). From the sonicate thus obtained, the microsome fraction was obtained by the same procedure as in Experiment Example 1, which was suspended in an ice-cooled 100 mM potassium phosphate buffer (pH 7.4) (about 4 mg/ml protein concentration). This suspension was used as the enzyme solution. The results are shown in [Table 4].

[2] = target: T2, squalene synthetase (Rattus norvegicus, UniProt Q02769); assay: Squalene synthetase inhibitory activity, rat-derived enzyme (liver microsome fraction); assay type: biochemical; settings: SD rat liver microsome fraction; 5 uM [1-3H] farnesyl pyrophosphate, 37° C., 45 minutes
T2 construct: from tissue; host or cells: rat liver microsome fraction (SD male rat, 6 weeks old)
T2 sequence (Q02769 1-416): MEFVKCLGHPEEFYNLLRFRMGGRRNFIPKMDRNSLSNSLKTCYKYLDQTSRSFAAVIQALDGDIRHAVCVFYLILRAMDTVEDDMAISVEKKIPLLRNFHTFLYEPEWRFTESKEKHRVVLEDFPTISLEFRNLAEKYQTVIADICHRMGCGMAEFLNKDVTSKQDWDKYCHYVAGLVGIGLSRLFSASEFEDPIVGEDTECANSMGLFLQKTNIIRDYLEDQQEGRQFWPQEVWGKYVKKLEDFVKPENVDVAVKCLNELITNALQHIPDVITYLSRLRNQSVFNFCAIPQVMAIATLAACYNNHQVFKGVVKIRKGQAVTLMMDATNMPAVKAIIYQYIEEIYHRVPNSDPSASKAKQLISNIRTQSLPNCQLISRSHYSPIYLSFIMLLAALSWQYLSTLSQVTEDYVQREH
Procedure: as §1, §2, §3, §4
An SD male rat (6 week old) was killed by bleeding, and its liver was excised. About 10 g of the liver was washed with a saline solution cooled with ice, which was then homogenized in 15 ml of an ice-cooled buffer solution [100 mM potassium phosphate (pH 7.4), 15 mM nicotinamide, 2 mM MgCl2 ], followed by centrifugation for 20 minutes (4° C.) with 10000×g. The supernatant layer was separated and subjected to further centrifugation for 90 minutes (4° C.) at 105000×g. The sediment was then suspended in an ice-cooled 100 mM phosphate buffer solution (pH 7.4), which was again subjected to centrifugation for 90 minutes (4° C.) at 105000×g. The sediment thus obtained (microsome fraction) was suspended in an ice-cooled 100 mM potassium phosphate buffer (pH 7.4) (about 40 mg/ml protein concentration, determined with BCA protein assay kit of Pias Co., Ltd.). This suspension was used as the enzyme solution.

Row | Structure (SMILES) | IC50 [1] | IC50 [2]
1 | COC(=O)C[C@H]1S[C@H](c2ccccc2OC)c2cc(Cl)ccc2N(CC(C)C)C1=O (relative stereo) [Example 8-1, 3,5-trans-7-Chloro-5-(2-methoxyphenyl)-1-isobutyl-2-oxo-1,2,3,5-tetrahydro-4,1-benzothiazepine-3-acetic acid methyl ester] | 2 µM | 
2 | CC(C)(C)CN1C(=O)[C@@H](CC(=O)O)S[C@H](c2ccccc2Cl)c2cc(Cl)ccc21 (relative stereo) [Example 9, 3,5-trans-7-Chloro-5-(2-chlorophenyl)-1-neopentyl-2-oxo-1,2,3,5-tetrahydro-4,1-benzothiazepine-3-acetic acid] | 0.039 µM | 0.18 µM
3 | CCCN1C(=O)[C@@H](CC(=O)O)S[C@H](c2ccccc2Cl)c2cc(Cl)ccc21 (relative stereo) [Example 10-2] | 0.042 µM | 0.062 µM
4 | CN1C(=O)[C@@H](CC(=O)O)S[C@H](c2ccccc2Cl)c2cc(Cl)ccc21 (relative stereo) [Example 10-3] |  | 0.92 µM
5 | CCN1C(=O)[C@@H](CC(=O)O)S[C@H](c2ccccc2Cl)c2cc(Cl)ccc21 (relative stereo) [Example 10-4] |  | 0.1 µM
6 | CC(C)CN1C(=O)[C@@H](CC(=O)O)S[C@H](c2ccccc2Cl)c2cc(Cl)ccc21 (relative stereo) [Example 10-5, 3,5-trans-7-Chloro-5-(2-chlorophenyl)-1-isobutyl-2-oxo-1,2,3,5-tetrahydro-4,1-benzothiazepine-3-acetic acid] | 0.025 µM | 0.051 µM
7 | CCCN1C(=O)[C@@H](CC(=O)O)S[C@H](c2ccccc2OC)c2cc(Cl)ccc21 (relative stereo) [Example 10-6] | 0.031 µM | 0.039 µM
8 | COc1ccccc1[C@H]1S[C@H](CC(=O)O)C(=O)N(CC(C)C)c2ccc(Cl)cc21 (relative stereo) [Example 10-7, 3,5-trans-7-Chloro-5-(2-methoxyphenyl)-1-isobutyl-2-oxo-1,2,3,5-tetrahydro-4,1-benzothiazepine-3-acetic acid] | 0.013 µM | 0.026 µM
9 | CC(C)(C)CN1C(=O)[C@@H](CC(=O)O)[S+]([O-])[C@H](c2ccccc2Cl)c2cc(Cl)ccc21 (relative stereo) [Example 19, 3,5-trans-7-Chloro-5-(2-chlorophenyl)-1-neopentyl-2-oxo-1,2,3,5-tetrahydro-4,1-benzothiazepine-3-acetic acid S-oxide] |  | 0.7 µM
10 | CC(C)(C)CN1C(=O)[C@@H](CC(=O)O)S(=O)(=O)[C@H](c2ccccc2Cl)c2cc(Cl)ccc21 (relative stereo) [Example 21, 3,5-trans-7-Chloro-5-(2-chlorophenyl)-1-neopentyl-2-oxo-1,2,3,5-tetrahydro-4,1-benzothiazepine-3-acetic acid S-dioxide] |  | 3.3 µM
11 | CC(C)(C)CN1C(=O)[C@@H](CC(=O)NCC(=O)O)S[C@H](c2ccccc2Cl)c2cc(Cl)ccc21 (relative stereo) [Example 23, N-[3,5-trans-7-Chloro-5-(2-chlorophenyl)-1-neopentyl-2-oxo-1,2,3,5-tetrahydro-4,1-benzothiazepine-3-acetyl]glycine] | 0.013 µM | 0.022 µM
12 | CC(C)(C)CN1C(=S)[C@@H](CC(=O)O)O[C@H](c2ccccc2Cl)c2cc(Cl)ccc21 (relative stereo) [Example 28, 3,5-trans-7-Chloro-5-(2-chlorophenyl)-1-neopentyl-1,2,3,4-tetrahydro-2-thioxo-4,1-benzoxazepine-3-acetic acid] |  | 0.46 µM
13 | CC(C)(C)CN1C(=O)[C@@H](CC(=O)O)O[C@H](c2ccccc2Cl)c2cc(Cl)sc21 (relative stereo) [Example 31, 3,5-trans-7-Chloro-5-(2-chlorophenyl)-1-neopentyl-2-oxo-1,2,3,5-tetrahydro-4,1-thieno[2,3-e]benzoxazepine-3-acetic acid] |  | 0.17 µM
14 | COc1ccccc1[C@H]1O[C@H](CC(=O)O)C(=O)N(CC(C)(C)C)c2sc(Cl)cc21 (relative stereo) [Example 33, 3,5-trans-7-Chloro-5-(2-methoxyphenyl)-1-neopentyl-2-oxo-1,2,3,5-tetrahydro-4,1-thieno[2,3-e]oxazepine-3-acetic acid] | 0.073 µM | 0.088 µM
15 | COc1ccccc1[C@H]1O[C@@H](CC(=O)O)C(=O)N(CC(C)(C)C)c2sc(Cl)cc21 (relative stereo) [Example 34, 3,5-cis-7-Chloro-5-(2-methoxyphenyl)-1-neopentyl-2-oxo-1,2,3,5-tetrahydro-4,1-thieno[2,3-e]oxazepine-3-acetic acid] |  | > 1 µM
16 | COc1ccccc1[C@H]1O[C@H](CC(=O)O)C(=O)N(CC(C)C)c2sc(Cl)cc21 (relative stereo) [Example 36, 3,5-trans-7-Chloro-1-isobutyl-5-(2-methoxyphenyl)-2-oxo-1,2,3,5-tetrahydro-4,1-thieno[2,3-e]oxazepine-3-acetic acid] |  | 0.49 µM
17 | COc1ccccc1C1SC(CC(=O)O)C(=O)N(CC(C)(C)C)c2ccc(Cl)cc21 (stereo not drawn) [Example 10-8, 3,5-trans-7-Chloro-5-(2-methoxyphenyl)-1-neopentyl-2-oxo-1,2,3,5-tetrahydro-4,1-benzothiazepine-3-acetic acid] | 0.013 µM | 0.023 µM
18 | CC(C)CN1C(=O)[C@@H](CC(=O)O)N=C(c2ccccc2Cl)c2cc(Cl)ccc21 [Example 13, (3R)-1-Isobutyl-7-chloro-5-(2-chlorophenyl)-2,3-dihydro-2-oxo-1H-1,4-benzodiazepine-3-acetic acid] |  | 3.9 µM
19 | CC(C)CN1C(=O)[C@@H](CC(=O)O)N[C@H](c2ccccc2Cl)c2cc(Cl)ccc21 [Example 14, (3R,5S)-1-Isobutyl-7-chloro-5-(2-chlorophenyl)-2,3,4,5-tetrahydro-2-oxo-1H-1,4-benzodiazepine-3-acetic acid] | 0.16 µM | 0.43 µM
20 | CC(C)CN1C(=O)C(CC(=O)O)CC(c2ccccc2Cl)c2cc(Cl)ccc21 (centres unmarked) [Example 26, 7-Chloro-5-(2-chlorophenyl)-1-isobutyl-2-oxo-2,3,4,5-tetrahydro-1H-[1]-benzazepine-3-acetic acid] | 0.12 µM | 0.39 µM
21 | COc1cccc([C@@H]2S[C@@H](CC(=O)O)C(=O)N(CC(C)(C)C)c3ccc(Cl)cc32)c1OC [Example 44, (3S,5R)-7-Chloro-5-(2,3-dimethoxyphenyl)-1-neopentyl-2-oxo-1,2,3,5-tetrahydro-4,1-benzothiazepine-3-acetic acid] |  | 0.96 µM
22 | COc1ccc([C@@H]2S[C@@H](CC(=O)O)C(=O)N(CC(C)(C)C)c3ccc(Cl)cc32)c(OC)c1 [Example 50, (3S,5R)-7-Chloro-5-(2,4-dimethoxyphenyl)-1-neopentyl-2-oxo-1,2,3,5-tetrahydro-4,1-benzothiazepine-3-acetic acid] |  | > 1 µM
